Test results from article PMC7044433, “Combining DNMT and HDAC6 inhibitors increases anti-tumor immune signaling and decreases tumor burden in ovarian cancer” (Scientific Reports, 2020).

Columns and labels:
[1] = tested on: ARID1A mutated ovarian clear cell carcinoma; conditions: mice with ARID1A mutated ovarian clear cell carcinoma; cited from earlier work
A2780 = test: qRT-PCR of interferon stimulated genes and cytokines; type: cell-based, human; conditions: A2780, Day 7, 500 nM Aza then NextA, fold change relative to Mock
Procedure: (§1) Cells were cultured in T75 dishes to form a monolayer at 80% confluency. Combination cells were treated with 500 nM 5-azacytidine or PBS for 3 days. Cells were passaged on the fourth day and split into 2 flasks to be treated with Nexturastat or vehicle at the desired dose based on the cell line for the following 3 days. On the last day of HDACi treatment, one flask from each treatment group was stimulated with 250 ng/mL IFNγ (Peprotech, 300-02) for 4 hours. For isogeneic ID8 murine cell lines, cell were stimulated with 250 ng/mL […] (Peprotech, 315-05) for 4 hours. On the seventh day cell pellets were collected for qPCR analysis.
(§2) Total RNA was extracted using the TRIzol method (Life Technologies). RNA concentration was determined using the Thermo Scientific NanoDrop One machine and software (Thermo Scientific, 840274100PR2). One microgram total RNA was DNAse I (Thermo Scientific) treated and used to generate cDNA with the Applied Biosystems High-Capacity cDNA Reverse Transcriptase Kit (Applied Biosystems, 4368814). All RT-qPCRs were run on the Applied Biosystems Quantstudio3 Real-Time PCR System, 96-well plate reader (Applied Biosystems, A28137) and using TaqMan assay Gene Expression Array (Thermo Fisher Scientific, 4331182) in human for OASL, IFI44L, IFNb1, CXCL10, CCL2, CCL5, IFI27, CD247, DNMT1, DNMT3a, DNMT3b and in mouse (Thermo Fisher Scientific, 4331182) for OASL, IFI44L, IFNb1, CXCL10, CCL2, CCL5, IFI27, and CD247. TBP was used as a housekeeping gene for both human and murine cell lines. The ΔΔCt method was used to calculate relative expression levels. Reverse transcriptase negative cDNA synthesis reaction was performed on at least one sample per 96-well plate along with a water control to ensure accurate results.

Hey = test: as above; type: cell-based, human; conditions: Day 7, 500 nM Aza then NextA, fold change relative to Mock
Procedure: as §1, §2

Kuramochi = test: as above; type: cell-based, human; conditions: Day 7, seven genes
Procedure: as §1, §2

SKOV3 CR [2] = test: as above; type: cell-based, human; conditions: Day 7
Procedure: as §1, §2

TykNu = test: as above; type: cell-based, human; conditions: Day 7, seven genes
Procedure: as §1, §2

MOSE ID8 Trp53−/− = test: as above; type: cell-based, mouse; conditions: Day 7, 500 nM Aza then NextA, fold change relative to Mock
Procedure: as §1
Total RNA was extracted using the TRIzol method (Life Technologies). RNA concentration was determined using the Thermo Scientific NanoDrop One machine and software (Thermo Scientific, 840274100PR2). […] All RT-qPCRs were run on the Applied Biosystems Quantstudio3 Real-Time PCR System, 96-well plate reader (Applied Biosystems, A28137) and using TaqMan assay Gene Expression Array (Thermo Fisher Scientific, 4331182) in human for OASL, IFI44L, IFNb1, CXCL10, CCL2, CCL5, IFI27, CD247, DNMT1, DNMT3a, DNMT3b and in mouse (Thermo Fisher Scientific, 4331182) for OASL, IFI44L, IFNb1, CXCL10, CCL2, CCL5, IFI27, and CD247. […]

DNMT1 protein = test: DNMT1 immunoblot in ovarian cancer cell lines; type: cell-based, human; conditions: Day 7
Procedure: (§3) Cells were cultured in T75 dishes (Greiner, 658170) to form a monolayer at 80% confluency. Combination cells were treated with 500 nM 5-azacytidine (Sigma-Aldrich) once a day for 3 days or PBS once a day for 3 days. Cells were passaged on the fourth day and split into 2 flasks to be treated with Nexturastat (StarWise, LLC) or DMSO for vehicle control at the desired dose based on the cell line for the following 3 days. On the first day of Nexturastat treatment, one flask from each treatment group was stimulated with 250 ng/mL IFNγ (Peprotech, 300-02). For isogeneic ID8 murine cell lines, on the first day of HDACi treatment cell were treated with 250 ng/mL IFNγ (Peprotech, 315-05). On the seventh day, cell pellets were collected for Western Blot or flow cytometry analysis. For cycloheximide experiments, cells were treated on the seventh day of the experiment for 0, 4 or 8 hours with 10 μM cycloheximide (Sigma, C4859).
(§4) Isolated cell pellets were lysed in RIPA buffer (Pierce, 89900) with 1X protease and phosphatase inhibitor (Pierce, A32961). […] Protein concentration was determined using a Pierce BCA Protein Assay Kit (Thermo Fisher Scientific, 23225) according to the manufacturer’s protocol. […] Bands were detected using Azure Biosystems (Dublin, California, USA) Imaging System c600. […]

[3] = tested on: tumor microenvironment immune cells; test: Immunophenotyping of ascites in ID8 Trp53−/− mouse model; type: in vivo; conditions: first experiment, Week 7
Procedure: Ascites and murine spleens were collected from 5 to 10 mice per group and incubated in ACK buffer (Thermo Fisher Scientific) to lyse red blood cells for 10 min and then washed. Ascites from each mouse were individually prepared for flow cytometry. The single cells collected were cultured for 4 hours in RPMI with 10% FBS and in the presence of 2 ul/ml Cell Stimulation Cocktail plus protein transport inhibitors (eBioscience, 00497503). Cells were then washed and stained for the T cell panel including: Live/Dead (Thermo Fisher Scientific, L34965), CD45 (Biolegend, 103132), CD3 (Biolegend, 152316), CD4 (Biolegend, 100453), CD8 (Biolegend, 100766), NK1.1 (Biolegend, 108753) CD 279 (Biolegend, 135205). After incubation, the cells were permeabilized (FoxP3 staining buffers; BD Bioscience, 563486). Intracellular staining was performed for FoxP3 (Biolegend, 505806) and IFN-γ (BD Bioscience, 563486).
(§5) All cells were fixed after staining using Foxp3/Transcription Factor Staining Buffer Set (eBioscience, 00-5523-00) and run on a 3-laser, 12-color BD Celesta analyzer.

[4] = tested on: ID8 Trp53−/− ovarian cancer; test: ID8 Trp53−/− mouse model of ovarian cancer, survival and tumor burden; conditions: first experiment; for survival: i.p. Aza 0.5 mg/kg, NextA 25 mg/kg, 5 days a week, combination on alternating weeks, vs Mock
Procedure: For in vivo tumor studies, all mice were given intraperitoneal injections with 5.0 ×10^6 p53−/− isogeneic murine ovarian cancer cells suspended in 500 uL 1x phosphate buffered saline (PBS) (Corning 21-040-CV). Treatment began 1 week after tumor inoculation and ended when the tumor burden was deemed excessive for the animal. Mice were injected with 5-azacytidine and Nexturastat 5 days a week in alternating treatment (see treatment schemas in Figs. 5 and 6). All mice were given intraperitoneal injections of epigenetic drugs or their appropriate controls. Mice in the 5-azacytidine group were given 0.5 mg/kg of 5-azacytidine dissolved in 100 ul of PBS solution daily. Mice in the NexturastatA group were given 25 mg/kg of Nexturastat A dissolved in 100 ul PEG vehicle solution(70% Polyethylene glycol, 10% Tween80, 20% absolute ethanol) daily. Mice in the NextA+Aza group were given 5-azacytidine and NexturastatA on an alternating weekly basis. Mice in the control group were given a drug vehicle comprised of 70% Polyethylene glycol (Sigma 764752), 10% Tween 80 (Sigma P5188), and 20% 200 proof absolute ethanol as per the manufacturer guidelines as a vehicle control for Nexturastat or PBS as a vehicle control for 5-azacytidine.
Tumor burden was assessed via measurement of body weight, amount of ascites drained from the mice at the point where they had gained 20 to 30% of their body weight, or abdominal circumference measurements.

HDAC activity = test: HDAC-Glo assay, percent inhibition of HDAC activity in ovarian cancer cell lines; type: cell-based, human
Procedure: HDACi enzymatic function was measured using HDACglo class I/IIa Assay (Promega, G6420). Cells were seeded in a 96-well dish and treated with 500 nM 5-azacytidine and varying levels of HDACi to determine appropriate HDACi dosage. Assay measurements were collected using SpectraMax i3x multi-mode microplate reader (Molecular Devices, USA) at the recommended wavelength. […], Givinostat, and Panobinostat (SelleckChem) were used to compare enzymatic inhibition levels of Nexturastat in each cell line. Results were analyzed according to manufacturer recommendations.

[5] = tested on: ovarian cancer cell lines; test: CellTox Green cytotoxicity assay; type: cell-based, human; conditions: NextA dose chosen for each cell line, 5–10 uM
Procedure: Drug toxicity levels were measured using the CellTox Assay (Promega, G8741). Cells were seeded into a 96-well dish and treated with 500 nm 5-azacytidine and varying levels of HDACi to determine suitable dosage. Cells were treated with fluorescent dye and incubated for 4 days measuring cell death according to the manufacturer’s protocol. For longer treatments, cells were seeded in a 96-well place and treated with 500 nm 5-azacytidine for 4 days and then varying levels of HDACi. Cells were treated with a fluorescent dye on the fourth day and incubated to measure cell death. Assay measurements were collected using SpectraMax i3x multi-mode microplate reader (Molecular Devices, USA) at the recommended wavelength. For our analysis, TritonX (Sigma, 9002-93-1) was used as the positive control compound to simulate cell death on all […] read days. Results were analyzed according to manufacture recommendations.

[6] = tested on: MHC class I, Hey human ovarian cancer cell line; test: MHC class I cell surface expression by flow cytometry; type: cell-based; conditions: Day 7, flow cytometry MFI
Procedure: as §3
(§6) Human ovarian cancer cells from day 7 of the protein protocol were stained for CD274 (eBioscience,12-5983-42) and MHC-I (eBioscience, 12-9983-42).
as §5

[7] = tested on: MHC class I, ID8 Trp53−/− mouse ovarian cancer cell line; test: as above; type: cell-based; conditions: Day 7, flow cytometry MFI
Procedure: as §3
Murine ovarian cancer cell lines from day 7 of the protein protocol were stained for PD-L1/CD274 (BD Bioscience, 558091), PD-L2/CD273 (Biolegend, 107214), MHC-I (Invitrogen, 17-5958-82), and MHC-II (Invitrogen 56-5321-82).
as §5

[8] = tested on: MHC I, IGROV-1 CR and SKOV3 CR; test: MHC I surface expression in cisplatin-resistant cell lines; type: cell-based, human; conditions: flow cytometry
Procedure: as §3, §6, §5

PD-L1 = PD-L1 whole-cell protein immunoblot; type: cell-based, human; conditions: IGROV-1 CR and SKOV3 CR
Procedure: as §3, §4

IGROV-1 CR = tested on: IGROV-1 CR; design: method as in PMID 29662190; conditions: read-out: cisplatin IC50; cited from earlier work
SKOV3 CR [9] = tested on: SKOV3 CR; design: method as in PMID 29662190; conditions: read-out: cisplatin IC50; cited from earlier work
[10] = low doses (250–500 nM), positive controls

For O=C(CCCCCCNC(=O)c1cnc(N(c2ccccc2)c2ccccc2)nc1)NO [ACY1215], the survival [1] is listed as “improved survival”.

In the case of Nc1ncn([C@@H]2O[C@H](CO)[C@@H](O)[C@H]2O)c(=O)n1 [Aza, 5-azacytidine], the “expression of cytokines and interferon genes” value (A2780) is reported as “significantly increased”, the “expression of cytokines and interferon genes” value (Hey) is reported as “significantly increased” and the “expression of cytokines and interferon genes” value (Kuramochi) is reported as “some upregulation”. For the same molecule, the “expression of cytokines and interferon genes” value (SKOV3 CR [2]) was “upregulated CCL2 and OASL genes”, the “expression of cytokines and interferon genes” value (TykNu) was “significant increases” and the “expression of cytokines and interferon genes” value (MOSE ID8 Trp53−/−) was “significantly increased”. For the same molecule, the DNMT1 protein expression (DNMT1 protein) was “degrades the DNMT1 protein”, the “M1 macrophages in ascites” value [3] was “increase in M1 macrophages” and the “ascites volume (tumor burden)” value ([4]; Week 7) was “decreased ascites volume”. For the same molecule, the survival [4] was “significantly increased survival”.

With CCN(CC)Cc1ccc2cc(COC(=O)Nc3ccc(C(=O)NO)cc3)ccc2c1 [Givinostat] the “inhibition of HDAC activity” value (HDAC activity; [10]) was 100%.

With Cc1[nH]c2ccccc2c1CCNCc1ccc(/C=C/C(=O)NO)cc1 [LBH] the “inhibition of HDAC activity” value (HDAC activity; [10]) was 100%.

For CCCCN(Cc1ccc(C(=O)NO)cc1)C(=O)Nc1ccccc1 [NextA, Nexturastat A], the “inhibition of HDAC activity” value (HDAC activity; 5 and 10 uM) was 60–80%, the cell death [5] was “no more than 20%” and the “expression of cytokines and interferon genes” value (A2780) was “significantly increased”. For the same molecule, the “expression of cytokines and interferon genes” value (Hey) was “significantly increased”, the “expression of cytokines and interferon genes” value (Kuramochi) was “some upregulation” and the “expression of cytokines and interferon genes” value (SKOV3 CR [2]) was “upregulated CCL2 and OASL genes”. The “expression of cytokines and interferon genes” value (MOSE ID8 Trp53−/−) was “significantly increased”, the “MHC class I cell surface expression” value [6] was “upregulated” and the “MHC class I cell surface expression” value [7] was “upregulated”. For the same molecule, the “MHC I expression” value [8] was “increase in MHC I expression”, the “total PD-L1 protein” value (PD-L1) was “decrease of total PD-L1 protein” and the “activated NK cells in ascites” value [3] was “favoring the presence of activated NK cells”. The survival [4] was “did not”.

With CC(/C=C/C(=O)NO)=C\[C@@H](C)C(=O)c1ccc(N(C)C)cc1 [TSA] the “inhibition of HDAC activity” value (HDAC activity; [10]) was 100%.

For N.N.[Cl][Pt][Cl] [cisplatin], the IC50 (IGROV-1 CR) is given as 1.5 µM and the IC50 (SKOV3 CR [9]) is given as 10.4 µM.
